In patent US20140057915A1, “KINASE INHIBITORS” (TOPIVERT PHARMA LIMITED, priority 2012, published 2014):
pEC50, pIC50: −log10 of the molar value.

Assays:
[1] = biological target: cSrc (Homo sapiens, UniProt P12931); assay: c-Src enzyme inhibition (FRET); type: biochemical; details: Table 4a1
Protocol: (§1) The enzyme inhibitory activities of compounds disclosed herein are determined by FRET using synthetic peptides labelled with both donor and acceptor fluorophores (Z-LYTE, Invitrogen Ltd., Paisley, UK).
(§2) The relevant enzyme (3000 ng/mL or 2000 ng/mL respectively, 2.5 μL) is incubated with the test compound (either 4 μg/mL, 0.4 μg/mL, 0.04 μg/mL, or 0.004 μg/mL, 2.5 μL each) for 2 hr at RT. The FRET peptides (8 μM, 2.5 μL), and appropriate ATP solutions (2.5 μL, 800 μM for c-Src, and 60 μM ATP for Syk) are then added to the enzymes/compound mixtures and incubated for 1 hr. Development reagent (protease, 5 μL) is added for 1 hr prior to detection in a fluorescence microplate reader (Varioskan® Flash, ThermoFisher Scientific).
(§3) In all cases, the site-specific protease cleaves non-phosphorylated peptide only and eliminates the FRET signal. Phosphorylation levels of each reaction are calculated using the ratio of coumarin emission (donor) over fluorescein emission (acceptor), for which high ratios indicate high phosphorylation and low ratios indicate low phosphorylation levels.

[2] = biological target: GSK3α (Homo sapiens, UniProt P49840); assay: GSK 3α enzyme inhibition (FRET), Method 1; type: biochemical; details: Table 4a1
Protocol: as §1
The following two assay variants are used for determination of GSK 3a inhibition.
The inhibitory activities of compounds of the invention against the GSK 3a enzyme isoform (Invitrogen), are evaluated by determining the level of activation/phosphorylation of the target peptide. The GSK3-α protein (500 ng/mL, 2.5 μL) is mixed with the test compound (2.5 μL at either 4 μg/mL, 0.4 μg/mL, 0.04 μg/mL, or 0.004 μg/mL) for 2 hr at RT. The FRET peptide (8 μM, 2.5 μL), which is a phosphorylation target for GSK3α, and ATP (40 μM, 2.5 μL) are then added to the enzyme/compound mixture and the resulting mixture incubated for 1 hr. Development reagent (protease, 5 μL) is added for 1 hr prior to detection in a fluorescence microplate reader (Varioskan® Flash, ThermoFisher Scientific).
as §3

[3] = biological target: Syk (Homo sapiens, UniProt P43405); assay: Syk enzyme inhibition (FRET); type: biochemical; details: Table 4a1
Protocol: as §1, §2, §3

[4] = system: ICAM-1 expression, BEAS2B cells; assay: Poly I:C-induced ICAM-1 expression in BEAS2B cells; type: cell-based; details: Homo sapiens, BEAS-2B; read-out: Poly IC induced ICAM1 in BEAS2B, IC50
Protocol: (f) Poly I:C-Induced ICAM-1 Expression in BEAS2B Cells
Poly I:C is used in these studies as a simple, RNA virus mimic. Poly I:C-Oligofectamine mixture (1 μg/mL Poly I:C, ±2% Oligofectamine, 25 μL; Invivogen Ltd., San Diego, Calif., and Invitrogen, Carlsbad, Calif., respectively) is transfected into BEAS2B cells (human bronchial epithelial cells, ATCC). Cells are pre-incubated with final concentrations of test compounds for 2 hr and the level of ICAM1 expression on the cell surface is determined by cell-based ELISA. At a time point 18 hr after poly I:C transfection, cells are fixed with 4% formaldehyde in PBS (100 μL) and then endogenous peroxidase is quenched by the addition of washing buffer (100 μL, 0.05% Tween in PBS: PBS-Tween) containing 0.1% sodium azide and 1% hydrogen peroxide. Cells are washed with wash-buffer (3×200 μL). and after blocking the wells with 5% milk in PBS-Tween (100 μL) for 1 hr, the cells are incubated with anti-human ICAM-1 antibody (50 μL; Cell Signalling Technology, Danvers, Mass.) in 1% BSA PBS overnight at 4° C.
The cells are washed with PBS-Tween (3×200 μL) and incubated with the secondary antibody (100 μL; HRP-conjugated anti-rabbit IgG, Dako Ltd., Glostrup, Denmark). […] The ICAM-1 signal is detected by reading the absorbance at 450 nm against a reference wavelength of 655 nm using a spectrophotometer. The cells are then washed with PBS-Tween (3×200 μL) and total cell numbers in each well are determined by reading absorbance at 595 nm after Crystal Violet staining (50 μL of a 2% solution in PBS) and elution by 1% SDS solution (100 μL) in distilled water. The measured OD 450-655 readings are corrected for cell number by dividing with the OD595 reading in each well. The inhibition of ICAM-1 expression is calculated at each concentration of test compound by comparison with vehicle control.

[5] = system: d-U937 cells; assay: Cell viability: MTT assay; type: cell-based, human; details: 1 μg/mL
Protocol: (l) The Effect of Test Compounds on Cell Viability: MTT Assay
Differentiated U937 cells are pre-incubated with each test compound (final concentration 1 μg/mL or 10 μg/mL in 200 μL media indicated below) under two protocols: the first for 4 hr in 5% FCS RPMI1640 media and the second in 10% FCS RPMI1640 media for 24 h. The supernatant is replaced with new media (200 μL) and MTT stock solution (10 μL, 5 mg/mL) is added to each well. After incubation for 1 hr the media are removed, DMSO (200 μL) is added to each well and the plates are shaken lightly for 1 hr prior to reading the absorbance at 550 nm. The percentage loss of cell viability is calculated for each well relative to vehicle (0.5% DMSO) treatment. Consequently an apparent increase in cell viability for drug treatment relative to vehicle is tabulated as a negative percentage.

[6] = system: IL-8 release, d-U937 cells; assay: LPS-induced IL-8 release in d-U937 cells; type: cell-based; details: Homo sapiens, dU937; Table 4c1; read-out: LPS Induced Release of Cytokine in d-U937 Cells, IL-8 IC50
Protocol: (§4) (a) LPS-Induced TNFα/IL-8 Release in d-U937Cells
U937 cells, a human monocytic cell line, are differentiated into macrophage-type cells by incubation with PMA (100 ng/mL) for 48 to 72 hr. Cells are pre-incubated with final concentrations of test compound for 2 hr and are then stimulated with LPS (0.1 μg/mL; from E. Coli: 0111:B4, Sigma) for 4 hr. […] The relative 50% effective concentration (REC50) is determined from the resultant concentration-response curve.

[7] = system: TNFα release, d-U937 cells; assay: LPS-induced TNFα release in d-U937 cells; type: cell-based; details: Homo sapiens, dU937; relative to 10 μg/mL BIRB796; Table 4c1; read-out: LPS Induced Release of Cytokine in d-U937 Cells, TNFα REC50
Protocol: as §4
U937 cells, a human monocytic cell line, are differentiated into macrophage-type cells by incubation with PMA (100 ng/mL) for 48 to 72 hr. Cells are pre-incubated with final concentrations of test compound for 2 hr and are then stimulated with LPS (0.1 μg/mL; from E. Coli: 0111:B4, Sigma) for 4 hr. The supernatant is collected for determination of TNFα and IL-8 concentrations by sandwich ELISA (Duo-set, R&D systems). […] The relative 50% effective concentration (REC50) is determined from the resultant concentration-response curve. The inhibition of IL-8 production is calculated at each concentration of test compound by comparison with vehicle control.

cSrc, sequence (P12931 whole entry): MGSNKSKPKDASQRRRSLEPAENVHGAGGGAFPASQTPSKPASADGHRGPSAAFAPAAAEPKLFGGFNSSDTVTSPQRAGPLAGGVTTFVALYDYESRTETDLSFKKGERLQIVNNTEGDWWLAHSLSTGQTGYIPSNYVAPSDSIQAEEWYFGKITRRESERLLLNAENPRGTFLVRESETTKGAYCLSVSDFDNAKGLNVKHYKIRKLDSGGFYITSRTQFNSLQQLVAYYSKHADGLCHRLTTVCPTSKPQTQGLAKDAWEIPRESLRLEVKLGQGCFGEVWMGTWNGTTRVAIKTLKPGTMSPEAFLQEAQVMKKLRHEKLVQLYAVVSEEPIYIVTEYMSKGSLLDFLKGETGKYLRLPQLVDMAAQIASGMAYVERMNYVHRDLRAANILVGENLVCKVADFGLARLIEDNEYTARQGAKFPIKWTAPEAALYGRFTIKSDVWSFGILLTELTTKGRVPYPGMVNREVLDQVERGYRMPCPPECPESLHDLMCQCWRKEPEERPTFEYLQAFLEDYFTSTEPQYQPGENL
GSK3α, sequence (P49840 whole entry): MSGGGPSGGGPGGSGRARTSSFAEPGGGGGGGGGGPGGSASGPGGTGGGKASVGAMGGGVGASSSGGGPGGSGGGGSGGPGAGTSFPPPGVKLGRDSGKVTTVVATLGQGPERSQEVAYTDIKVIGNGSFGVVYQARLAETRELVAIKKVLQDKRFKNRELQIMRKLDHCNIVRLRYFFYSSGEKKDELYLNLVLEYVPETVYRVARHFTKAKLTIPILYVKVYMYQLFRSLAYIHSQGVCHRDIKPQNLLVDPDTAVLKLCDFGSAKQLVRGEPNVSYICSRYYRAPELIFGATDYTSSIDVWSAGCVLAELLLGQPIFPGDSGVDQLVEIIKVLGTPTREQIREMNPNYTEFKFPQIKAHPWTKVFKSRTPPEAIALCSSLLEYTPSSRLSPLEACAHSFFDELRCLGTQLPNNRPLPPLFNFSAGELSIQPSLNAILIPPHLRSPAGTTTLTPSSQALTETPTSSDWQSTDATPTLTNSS

pIC50 [1]	pIC50 [2]	pIC50 [3]	pIC50 [6]	pEC50 [7]	Compound	pIC50 [4]	Cell viability at time point in d-U937 cells, 4 h [5]	Cell viability at time point in d-U937 cells, 24 h [5]
8.70	6.91	7.89	9.10	9.40	COc1cc(Nc2nccc(Oc3ccc(NC(=O)Nc4cc(C(C)(C)C)nn4-c4ccc(C)cc4)c4ccccc34)n2)cc(C(=O)NCCO)c1 [Example 64, 3-((4-((4-(3-(3-(tert-butyl)-1-(p-tolyl)-1H-pyrazol-5-yl)ureido)naphthalen-1-yl)oxy)pyrimidin-2-yl)amino)-N-(2-hydroxyethyl)-5-methoxybenzamide]	9.00	−ve (−ve and +ve indicate that the value is below and above respectively, the no significant effect threshold, defined as 30% inhibition at 1 μg/mL at the time point indicated)	−ve (−ve and +ve indicate that the value is below and above respectively, the no significant effect threshold, defined as 30% inhibition at 1 μg/mL at the time point indicated)
9.00	6.55	8.10	9.52	9.70	COc1cc(Nc2nccc(Oc3ccc(NC(=O)Nc4cc(C(C)C)nn4-c4ccc(C)cc4)c4ccccc34)n2)cc(C(=O)N2CCN(C)CC2)c1 [Example 69, 1-(3-isopropyl-1-(p-tolyl)-1H-pyrazol-5-yl)-3-(4-((2-((3-methoxy-5-(4-methylpiperazine-1-carbonyl)phenyl)amino)pyrimidin-4-yl)oxy)naphthalen-1-yl)urea]	8.12	−ve (−ve and +ve indicate that the value is below and above respectively, the no significant effect threshold, defined as 30% inhibition at 1 μg/mL at the time point indicated)	−ve (−ve and +ve indicate that the value is below and above respectively, the no significant effect threshold, defined as 30% inhibition at 1 μg/mL at the time point indicated)
–	5.79	< 5.88	9.15	8.80	COc1ccc(-n2nc(C(C)C)cc2NC(=O)Nc2ccc(Oc3ccnc(Nc4cc(C)cc(C(=O)NCCN5CCOCC5)c4)n3)c3ccccc23)cc1 [Example 45, 3-((4-((4-(3-(3-isopropyl-1-(4-methoxyphenyl)-1H-pyrazol-5-yl)ureido)naphthalen-1-yl)oxy)pyrimidin-2-yl)amino)-5-methyl-N-(2-morpholinoethyl)benzamide]	6.87	−ve (−ve and +ve indicate that the value is below and above respectively, the no significant effect threshold, defined as 30% inhibition at 1 μg/mL at the time point indicated)	−ve (−ve and +ve indicate that the value is below and above respectively, the no significant effect threshold, defined as 30% inhibition at 1 μg/mL at the time point indicated)

Second part, the molecule before the results:

Compound	pIC50 [1]	pIC50 [2]	pIC50 [3]	pIC50 [6]	pEC50 [7]	pIC50 [4]	Cell viability at time point in d-U937 cells, 4 h [5]	Cell viability at time point in d-U937 cells, 24 h [5]
COc1ccc(-n2nc(C(C)C)cc2NC(=O)Nc2ccc(Oc3ccnc(Nc4cc(Cl)cc(C(=O)NCCN5CCOCC5)c4)n3)c3ccccc23)cc1 [Example 61, 3-chloro-5-((4-((4-(3-(3-isopropyl-1-(4-methoxyphenyl)-1H-pyrazol-5-yl)ureido)naphthalen-1-yl)oxy)pyrimidin-2-yl)amino)-N-(2-morpholinoethyl)benzamide]	8.05	5.16	7.49	8.70	8.96	6.89	−ve (−ve and +ve indicate that the value is below and above respectively, the no significant effect threshold, defined as 30% inhibition at 1 μg/mL at the time point indicated)	−ve (−ve and +ve indicate that the value is below and above respectively, the no significant effect threshold, defined as 30% inhibition at 1 μg/mL at the time point indicated)
Cc1ccc(-n2nc(C(C)(C)C)cc2NC(=O)Nc2ccc(Oc3ccnc(Nc4cccc(C(=O)N(C)C)c4)n3)c3ccccc23)cc1 [Example 26, 3-((4-((4-(3-(3-(tert-butyl)-1-(p-tolyl)-1H-pyrazol-5-yl)ureido)naphthalen-1-yl)oxy)pyrimidin-2-yl)amino)-N,N-dimethylbenzamide]	8.22	6.41	7.85	8.64	9.30	7.95	−ve (−ve and +ve indicate that the value is below and above respectively, the no significant effect threshold, defined as 30% inhibition at 1 μg/mL at the time point indicated)	−ve (−ve and +ve indicate that the value is below and above respectively, the no significant effect threshold, defined as 30% inhibition at 1 μg/mL at the time point indicated)
COc1ccc(Nc2nccc(Oc3ccc(NC(=O)Nc4cc(C(C)C)nn4-c4ccc(C)cc4)c4ccccc34)n2)cc1C(=O)NCCN1CCOCC1 [Example 70, 5-((4-((4-(3-(3-isopropyl-1-(p-tolyl)-1H-pyrazol-5-yl)ureido)naphthalen-1-yl)oxy)pyrimidin-2-yl)amino)-2-methoxy-N-(2-morpholinoethyl)benzamide]	8.70	6.28	7.66	8.82	9.22	8.05	−ve (−ve and +ve indicate that the value is below and above respectively, the no significant effect threshold, defined as 30% inhibition at 1 μg/mL at the time point indicated)	−ve (−ve and +ve indicate that the value is below and above respectively, the no significant effect threshold, defined as 30% inhibition at 1 μg/mL at the time point indicated)
